Data on 1 compound can be found in patent US9260710B2, “Photocleavable linker” (City of Hope, priority 2012, dated 2016).

Common to all, as to type: cell-based
For assay [1], the system named is GFP-TcTex1 trap transfected Cos1/Cos7 cells. The assay is described as follows: Organelle dispersion and microtubule array in cells expressing the TcTex1 trap. The arrangement: dispersion of the three organelle types (early endosomes, lysosomes, Golgi): dose or concentration left out as unconfirmed. The text has this:
(§1) In vivo effect of Dynein LC and IC Traps. As tests for LC function, we evaluated the effects of the traps on early endosome, lysosome, and Golgi distribution, as well as mitotic progression. First, we fused green fluorescent protein (GFP) to the N-terminus of both FKBP-traps to identify transfected cells. Next, we transfected Cos1, Cos7, or HeLa cells with either trap or a GFP-FKBP control and labeled endosomes, lysosomes and Golgi with EEA1, LAMP2 and GM130 markers, respectively (FIGS. 12A-12C). […] The percentage of cells expressing the GFPLC8 or GFP-TcTex1 trap with dispersed endosomes was 14.7±1.5% and 13.3±1.5%, respectively, as compared to 11.7±3.5% and 10.3±3.5% for non-transfected cells and cells that expressed a GFP-FKBP control, respectively. […] After 8 h of treatment with AP20187, we observed greater than 50% dispersion of the three organelle types for each trap.
(§2) To ensure the AP20187 concentration was not limiting, we followed the LC8-trap-induced dispersion of lysosomes as a function of AP20187 concentration after 8 h. […] For the TcTex1-trap, we observed efficient endosome, lysosome and Golgi dispersion at AP20187 concentrations of 1 μM or greater.
(§3) Kinetic Analysis Separates Dynein Functions. A major purpose for developing these traps is to provide immediate inhibition of protein function and follow the cellular response from this perturbation to gain new insight. Thus, we monitored the fraction of cells with dispersed organelles as a function of time. After induction of dimerization by AP20187, effects on both early endosome and lysosome distribution were detectable at 10 min, and leveled off at ˜2 h (FIGS. 14A-14B). […] The most rapid effect was observed on lysosomes in cells expressing the LC8 trap. In striking contrast, Golgi dispersal using either trap occurred over a much longer time-course, requiring 8 h after induction of dimerization to reach similar levels of dispersion as for endosomes and lysosomes. Twenty-four hours after addition of AP20187, the percentage of cells with dispersed Golgi reached levels greater than 85%.

The subject of assay [2] is GFP-LC8 trap transfected Cos1/Cos7 cells. The assay can be described thus: Organelle dispersion and microtubule array in cells expressing the LC8 trap.
From the text: as §1, §2, §3

The test system of assay [3] is GFP IC trap transfected Cos1 cells. The assay can be described thus: Organelle dispersion and microtubule array in cells expressing the IC trap. Here is the method:
FIGS. 13A-13B. FIGS. 13A-13B depict that induction of IC traps leads to Endosome (FIG. 13A) and Golgi apparatus (FIG. 13B) dispersion. Cos1 cells were transfected with the GFP IC trap (upper rights panels of FIGS. 13A and 13B) for 24 h and then treated with AP20187 for 1 h. The cells were stained with DAPI for nuclei (upper left panels of FIGS. 13 A and 13B) and EEA1 for endosomes (FIG. 13A, lower left panel)) or GM130 marker for Golgi bodies (FIG. 13B, lower left panel). Note the endosomes and Golgi apparatus are dispersed (marked “d”) within 10 min and 1 h, respectively. Cells not containing the IC trap all show compact endosomes and Golgi bodies (marked “c”). Scale bar is 5 μm.
As a test for effects on cytoplasmic dynein functions that are distinct from vesicular transport, we monitored mitotic behavior in cells expressing either the LC8- or TcTex1-traps. We observed little effect on either mitotic index or the fraction of mitotic cells at discrete mitotic stages with either trap (data not shown). […] Finally, similar studies were carried out using the IC trap. As before, we observed little or no change in the dispersion of endosomes and Golgi apparatus before AP20187 treatment. Induction of dimerization through the addition of AP20187 (1 μM) produced immediate changes in both organelles. After 4 h, 81+4% of cells contained dispersed endosomes and 68+3% of cells contained dispersed Golgi. […] The precise reason for this difference is not clear; however, currently, we attribute this to a change in the cytoskeleton, but this must still be verified. We are also in the process of measuring the effect of sequestering the dynein IC on mitotic behavior.
Microtubule architecture. Known methods of inhibiting cytoplasmic dynein, such as expression of dynactin polypeptides or RNAi against the dynein regulatory factors NudEL and ZW10, cause disorganization of the radial microtubule (MT) network in cultured mammalian cells 52-54. […] This is consistent with previous studies where overexpressing a dimeric form of the IC trap (e.g., CC1 of p150glued) also disrupts of the MT array).

[4] abbreviates: after induction of dimerization.
The mark [5] stands for this setting: twenty-four hours after addition.
Where [6] appears, read: Cos1 cells, after AP20187 addition.

As for `CCC(C(=O)N1CCCCC1C(=O)OC(CCc1ccc(OC)c(OC)c1)c1cccc(OCC(=O)NCC(CNC(=O)COc2cccc(C(CCc3ccc(OC)c(OC)c3)OC(=O)C3CCCCN3C(=O)C(CC)c3cc(OC)c(OC)c(OC)c3)c2)CN(C)C)c1)c1cc(OC)c(OC)c(OC)c1` (stereo not shown) [AP, AP20187], the “AP20187 concentrations giving efficient endosome, lysosome and Golgi dispersion” value in assay [1] is at least 1 µM. For the same compound, the “dispersion of the three organelle types (early endosomes, lysosomes, Golgi)” value in assay [1] (8 h of treatment) is “greater than 50%”; in assay [2] (8 h of treatment, 100 μM AP20187) it was “greater than 50%”. Besides, the “microtubule radial array / cytoskeleton changes” value in assay [1] (8 h post-induction) and in assay [2] (8 h post-induction) was “No significant changes” each time. Besides, the “time at which effects on early endosome and lysosome distribution leveled off” value in assay [1] (setting [4]) and in assay [2] (setting [4]) was about 2 h in each case. In addition, the “time at which effects on early endosome and lysosome distribution were detectable” value in assay [1] (setting [4]) and in assay [2] (setting [4]) was 10 min throughout. In addition, the “time required for Golgi dispersal to reach similar levels as endosomes and lysosomes” value in assay [1] (setting [4]) and in assay [2] (setting [4]) was 8 h each time. The “percentage of cells with dispersed Golgi” value in assay [1] (setting [5]) and in assay [2] (setting [5]) was “greater than 85%” throughout. Besides, the “AP20187 concentration at which lysosome dispersion reached a plateau” value in assay [2] (after 8 h) is reported as 100 nM. Further, in assay [3] (AP20187 1 μM, after 4 h), the “cells containing dispersed Golgi” value is on record as 68+3%. Besides, in assay [3] (AP20187 1 μM, after 4 h), the “cells containing dispersed endosomes” value was 81+4%. The “microtubule (MT) radial array” value in assay [3] (AP20187-induced dimerization of the IC trap) was “significantly disrupted”. The “time within which Golgi apparatus is dispersed” value in assay [3] (setting [6]) is at most 1 h. Further, the “time within which endosomes are dispersed” value in assay [3] (setting [6]) is at most 10 min.
